# Data: ChEMBL document CHEMBL4190267, “Discovery of potent molecular chimera (CM358) to treat human metastatic melanoma” (Eur J Med Chem, 2017)
# Active and inactive are the calls of the source. The calls are words filed in the database; no cut-off is given here.
# How the values were obtained:
# [1] = tested on: PC-3; test: Growth inhibition of human PC3 cells up to 25 uM cotreated with colchicine measured after 24 hrs by XTT assay; assay type: functional, cell-based
# [2] = tested on: MDA-MB-231; test: Growth inhibition of human MDA-MB-231 cells up to 25 uM cotreated with colchicine measured after 24 hrs by XTT assay; assay type: functional, cell-based
# [3] = tested on: WM 266-4; test: Growth inhibition of human WM266.4 cells up to 25 uM cotreated with colchicine measured after 24 hrs by XTT assay; assay type: functional, cell-based
# [4] = tested on: A 172; test: Growth inhibition of human A172 cells up to 25 uM cotreated with colchicine measured after 24 hrs by XTT assay; assay type: functional, cell-based
# [5] = tested on: NCI-H1299; test: Growth inhibition of human NCI-H1299 cells up to 25 uM cotreated with colchicine measured after 24 hrs by XTT assay; assay type: functional, cell-based
# [6] = tested on: WM 266-4; test: Growth inhibition of human WM266.4 cells at 25 uM after 24 hrs by XTT assay; assay type: functional, cell-based
# [7] = tested on: PC-3; test: Growth inhibition of human PC3 cells preincubated for 6 hrs followed compound washout measured after 24 hrs by XTT assay; assay type: functional
# [8] = tested on: PC-3; test: Growth inhibition of human PC3 cells preincubated for 6 hrs cotreated with amonafide followed compound washout measured after 24 hrs by XTT assay; assay type: functional
# [9] = tested on: MDA-MB-231; test: Growth inhibition of human MDA-MB-231 cells preincubated for 6 hrs followed compound washout measured after 24 hrs by XTT assay; assay type: functional
# [10] = tested on: MDA-MB-231; test: Growth inhibition of human MDA-MB-231 cells preincubated for 6 hrs cotreated with amonafide followed compound washout measured after 24 hrs by XTT assay; assay type: functional
# [11] = tested on: WM 266-4; test: Growth inhibition of human WM266.4 cells preincubated for 6 hrs followed compound washout measured after 24 hrs by XTT assay; assay type: functional
# [12] = tested on: WM 266-4; test: Growth inhibition of human WM266.4 cells preincubated for 6 hrs cotreated with amonafide followed compound washout measured after 24 hrs by XTT assay; assay type: functional
# [13] = tested on: A 172; test: Growth inhibition of human A172 cells preincubated for 6 hrs followed compound washout measured after 24 hrs by XTT assay; assay type: functional
# [14] = tested on: A 172; test: Growth inhibition of human A172 cells preincubated for 6 hrs cotreated with amonafide followed compound washout measured after 24 hrs by XTT assay; assay type: functional
# [15] = tested on: NCI-H1299; test: Growth inhibition of human NCI-H1299 cells preincubated for 6 hrs followed compound washout measured after 24 hrs by XTT assay; assay type: functional
# [16] = tested on: NCI-H1299; test: Growth inhibition of human NCI-H1299 cells preincubated for 6 hrs cotreated with amonafide followed compound washout measured after 24 hrs by XTT assay; assay type: functional
# [17] = tested on: WM 266-4; test: Cell cycle arrest in human WM266.4 cells assessed as accumulation at G1 phase at 10 uM cotreated with amonafide after 2 hrs by propidium iodide staining based flow cytometry (reference value: 59%); assay type: functional
# [18] = tested on: WM 266-4; test: Cell cycle arrest in human WM266.4 cells assessed as accumulation at S phase at 10 uM cotreated with amonafide after 2 hrs by propidium iodide staining based flow cytometry (reference value: 27%); assay type: functional
# [19] = tested on: WM 266-4; test: Cell cycle arrest in human WM266.4 cells assessed as accumulation at G2 phase at 10 uM cotreated with amonafide after 2 hrs by propidium iodide staining based flow cytometry (reference value: 11%); assay type: functional
# [20] = tested on: WM 266-4; test: Cell cycle arrest in human WM266.4 cells assessed as accumulation at G1 phase at 10 uM cotreated with amonafide after 8 hrs by propidium iodide staining based flow cytometry (reference value: 59%); assay type: functional
# [21] = tested on: WM 266-4; test: Cell cycle arrest in human WM266.4 cells assessed as accumulation at S phase at 10 uM cotreated with amonafide after 8 hrs by propidium iodide staining based flow cytometry (reference value: 27%); assay type: functional
# [22] = tested on: WM 266-4; test: Cell cycle arrest in human WM266.4 cells assessed as accumulation at G2 phase at 10 uM cotreated with amonafide after 8 hrs by propidium iodide staining based flow cytometry (reference value: 11%); assay type: functional
# [23] = tested on: WM 266-4; test: Cell cycle arrest in human WM266.4 cells assessed as accumulation at G1 phase at 10 uM cotreated with amonafide after 24 hrs by propidium iodide staining based flow cytometry (reference value: 59%); assay type: functional
# [24] = tested on: WM 266-4; test: Cell cycle arrest in human WM266.4 cells assessed as accumulation at S phase at 10 uM cotreated with amonafide after 24 hrs by propidium iodide staining based flow cytometry (reference value: 27%); assay type: functional
# [25] = tested on: WM 266-4; test: Cell cycle arrest in human WM266.4 cells assessed as accumulation at G2 phase at 10 uM cotreated with amonafide after 24 hrs by propidium iodide staining based flow cytometry (reference value: 11%); assay type: functional
# [26] = tested on: WM 266-4; test: Antitumor activity against human WM266.4 cells xenografted in athymic Foxn1 nu mouse assessed as tumor growth inhibition at 10 mg/kg, ip cotreated with amonafide administered once daily for 3 days followed by resting period of 4 days repeated for 4 weeks starting from 5 days post tumor inoculation; assay type: functional, organism-based
# [27] = tested on: WM 266-4; test: Antitumor activity against human WM266.4 cells xenografted in athymic Foxn1 nu mouse assessed as tumor growth inhibition at 10 mg/kg, ip cotreated with amonafide administered once daily for 7 days followed by resting period of 2 days repeated for 4 weeks starting from 5 days post tumor inoculation; assay type: functional, organism-based
# [28] = tested on: Mus musculus; test: Toxicity in athymic Foxn1 nu mouse xenografted with human WM266.4 cells assessed as body weight loss at 10 mg/kg, ip cotreated with amonafide administered once daily for 7 days followed by resting period of 2 days repeated for 4 weeks starting from 5 days post tumor inoculation; assay type: organism-based; details: in vivo
# [29] = tested on: Mus musculus; test: Toxicity in athymic Foxn1 nu mouse xenografted with human WM266.4 cells assessed as body weight loss at 10 mg/kg, ip cotreated with amonafide administered once daily for 3 days followed by resting period of 4 days repeated for 4 weeks starting from 5 days post tumor inoculation; assay type: organism-based; details: in vivo
# [30] = tested on: PC-3; test: Growth inhibition of human PC3 cells preincubated for 6 hrs cotreated with chlorambucil followed compound washout measured after 24 hrs by XTT assay; assay type: functional
# [31] = tested on: MDA-MB-231; test: Growth inhibition of human MDA-MB-231 cells preincubated for 6 hrs cotreated with chlorambucil followed compound washout measured after 24 hrs by XTT assay; assay type: functional
# [32] = tested on: WM 266-4; test: Growth inhibition of human WM266.4 cells preincubated for 6 hrs cotreated with chlorambucil followed compound washout measured after 24 hrs by XTT assay; assay type: functional
# [33] = tested on: A 172; test: Growth inhibition of human A172 cells preincubated for 6 hrs cotreated with chlorambucil followed compound washout measured after 24 hrs by XTT assay; assay type: functional
# [34] = tested on: NCI-H1299; test: Growth inhibition of human NCI-H1299 cells preincubated for 6 hrs cotreated with chlorambucil followed compound washout measured after 24 hrs by XTT assay; assay type: functional
# [35] = tested on: WM 266-4; test: Cell cycle arrest in human WM266.4 cells assessed as accumulation at G1 phase at 10 uM cotreated with chlorambucil after 2 hrs by propidium iodide staining based flow cytometry (reference value: 59%); assay type: functional
# [36] = tested on: WM 266-4; test: Cell cycle arrest in human WM266.4 cells assessed as accumulation at S phase at 10 uM cotreated with chlorambucil after 2 hrs by propidium iodide staining based flow cytometry (reference value: 27%); assay type: functional
# [37] = tested on: WM 266-4; test: Cell cycle arrest in human WM266.4 cells assessed as accumulation at G2 phase at 10 uM cotreated with chlorambucil after 2 hrs by propidium iodide staining based flow cytometry (reference value: 11%); assay type: functional
# [38] = tested on: WM 266-4; test: Cell cycle arrest in human WM266.4 cells assessed as accumulation at G1 phase at 10 uM cotreated with chlorambucil after 8 hrs by propidium iodide staining based flow cytometry (reference value: 59%); assay type: functional
# [39] = tested on: WM 266-4; test: Cell cycle arrest in human WM266.4 cells assessed as accumulation at S phase at 10 uM cotreated with chlorambucil after 8 hrs by propidium iodide staining based flow cytometry (reference value: 27%); assay type: functional
# [40] = tested on: WM 266-4; test: Cell cycle arrest in human WM266.4 cells assessed as accumulation at G2 phase at 10 uM cotreated with chlorambucil after 8 hrs by propidium iodide staining based flow cytometry (reference value: 11%); assay type: functional
# [41] = tested on: WM 266-4; test: Cell cycle arrest in human WM266.4 cells assessed as accumulation at G1 phase at 10 uM cotreated with chlorambucil after 24 hrs by propidium iodide staining based flow cytometry (reference value: 59%); assay type: functional
# [42] = tested on: WM 266-4; test: Cell cycle arrest in human WM266.4 cells assessed as accumulation at S phase at 10 uM cotreated with chlorambucil after 24 hrs by propidium iodide staining based flow cytometry (reference value: 27%); assay type: functional
# [43] = tested on: WM 266-4; test: Cell cycle arrest in human WM266.4 cells assessed as accumulation at G2 phase at 10 uM cotreated with chlorambucil after 24 hrs by propidium iodide staining based flow cytometry (reference value: 11%); assay type: functional
# [44] = target: DNA topoisomerase 2-alpha (Homo sapiens) (UniProt P11388); test: Inhibition of human topoisomerase-2alpha assessed as reduction in enzyme-mediated decatenation at 100 uM using kinetoplast DNA as substrate after 25 mins by ethidium bromide staining based agarose gel electrophoresis method
# [45] = target: DNA topoisomerase 2-alpha (Homo sapiens) (UniProt P11388); test: Inhibition of human topoisomerase-2alpha assessed as reduction in enzyme-mediated decatenation at 25 uM using kinetoplast DNA as substrate after 25 mins by ethidium bromide staining based agarose gel electrophoresis method
# [46] = tested on: WM 266-4; test: Antitumor activity against human WM266.4 cells xenografted in athymic Foxn1 nu mouse assessed as tumor growth inhibition at 10 mg/kg, ip cotreated with chlorambucil administered once daily for 7 days followed by resting period of 2 days repeated for 4 weeks starting from 5 days post tumor inoculation; assay type: functional, organism-based
# [47] = tested on: WM 266-4; test: Antitumor activity against human WM266.4 cells xenografted in athymic Foxn1 nu mouse assessed as tumor growth inhibition at 10 mg/kg, ip cotreated with chlorambucil administered once daily for 3 days followed by resting period of 4 days repeated for 4 weeks starting from 5 days post tumor inoculation; assay type: functional, organism-based
# [48] = tested on: Mus musculus; test: Toxicity in athymic Foxn1 nu mouse xenografted with human WM266.4 cells assessed as body weight loss at 10 mg/kg, ip cotreated with chlorambucil administered once daily for 7 days followed by resting period of 2 days repeated for 4 weeks starting from 5 days post tumor inoculation; assay type: organism-based; details: in vivo
# [49] = tested on: Mus musculus; test: Toxicity in athymic Foxn1 nu mouse xenografted with human WM266.4 cells assessed as body weight loss at 10 mg/kg, ip cotreated with chlorambucil administered once daily for 3 days followed by resting period of 4 days repeated for 4 weeks starting from 5 days post tumor inoculation; assay type: organism-based; details: in vivo
# Sequence of DNA topoisomerase 2-alpha (Homo sapiens) (P11388 whole entry): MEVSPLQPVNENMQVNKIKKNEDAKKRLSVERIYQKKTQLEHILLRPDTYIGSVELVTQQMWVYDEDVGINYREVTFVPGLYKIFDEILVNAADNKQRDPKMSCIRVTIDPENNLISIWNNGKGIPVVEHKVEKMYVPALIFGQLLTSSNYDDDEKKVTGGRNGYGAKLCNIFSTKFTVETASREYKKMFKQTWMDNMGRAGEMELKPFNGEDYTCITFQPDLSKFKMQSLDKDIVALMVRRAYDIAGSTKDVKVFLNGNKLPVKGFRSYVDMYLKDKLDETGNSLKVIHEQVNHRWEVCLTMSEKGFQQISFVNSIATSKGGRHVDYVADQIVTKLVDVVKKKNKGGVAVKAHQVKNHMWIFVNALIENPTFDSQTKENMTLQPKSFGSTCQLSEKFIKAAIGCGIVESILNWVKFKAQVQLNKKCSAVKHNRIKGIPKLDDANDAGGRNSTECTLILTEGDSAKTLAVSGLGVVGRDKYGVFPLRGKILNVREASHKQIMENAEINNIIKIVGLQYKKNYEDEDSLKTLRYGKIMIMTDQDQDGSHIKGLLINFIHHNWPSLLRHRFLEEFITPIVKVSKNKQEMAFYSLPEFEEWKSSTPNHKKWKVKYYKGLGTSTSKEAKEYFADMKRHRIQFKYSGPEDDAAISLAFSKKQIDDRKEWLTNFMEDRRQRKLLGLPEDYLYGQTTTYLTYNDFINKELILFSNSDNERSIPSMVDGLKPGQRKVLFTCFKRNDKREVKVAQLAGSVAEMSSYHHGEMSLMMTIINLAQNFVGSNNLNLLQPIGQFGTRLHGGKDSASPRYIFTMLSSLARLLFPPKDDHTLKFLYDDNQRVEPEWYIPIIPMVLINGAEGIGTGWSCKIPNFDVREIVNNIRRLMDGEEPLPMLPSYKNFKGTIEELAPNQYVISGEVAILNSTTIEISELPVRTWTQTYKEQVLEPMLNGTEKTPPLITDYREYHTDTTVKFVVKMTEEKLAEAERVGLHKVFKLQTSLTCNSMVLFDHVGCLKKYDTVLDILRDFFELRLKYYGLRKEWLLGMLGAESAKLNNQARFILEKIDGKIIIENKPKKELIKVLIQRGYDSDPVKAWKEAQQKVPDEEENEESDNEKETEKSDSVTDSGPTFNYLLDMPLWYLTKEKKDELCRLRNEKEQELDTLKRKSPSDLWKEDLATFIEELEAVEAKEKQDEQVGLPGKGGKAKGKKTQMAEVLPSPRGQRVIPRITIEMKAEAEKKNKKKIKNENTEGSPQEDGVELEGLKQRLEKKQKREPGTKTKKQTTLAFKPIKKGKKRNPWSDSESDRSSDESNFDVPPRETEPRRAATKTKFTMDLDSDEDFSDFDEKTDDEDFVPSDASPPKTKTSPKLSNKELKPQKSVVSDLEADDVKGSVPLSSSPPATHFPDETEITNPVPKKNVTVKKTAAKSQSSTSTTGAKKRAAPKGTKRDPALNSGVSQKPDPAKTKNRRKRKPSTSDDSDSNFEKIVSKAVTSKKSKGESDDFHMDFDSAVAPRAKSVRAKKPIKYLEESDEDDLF
smiles,measurement,setting,value
CC[C@@]1(O)C(=O)OCc2c1cc1n(c2=O)Cc2cc3ccccc3nc2-1,growth inhibition (GI),[1],Active
same,growth inhibition (GI),[2],Active
same,growth inhibition (GI),[3],Active
same,growth inhibition (GI),[4],Active
same,growth inhibition (GI),[5],Active
CC(=O)Nc1cc2c3c(cccc3c1)C(=O)N(CCN(C)C)C2=O,growth inhibition (GI),[6],inactive
O=C(O)CCCc1ccc(N(CCCl)CCCl)cc1 [CHLORAMBUCIL],GI50,[7],> 25 µM
same,GI50,[8],> 25 µM
same,GI50,[9],> 25 µM
same,GI50,[10],> 25 µM
same,GI50,[11],> 25 µM
same,GI50,[12],> 25 µM
same,GI50,[13],> 25 µM
same,GI50,[14],> 25 µM
same,GI50,[15],> 25 µM
same,GI50,[16],> 25 µM
same,Activity,[17],63.5%
same,Activity,[18],26%
same,Activity,[19],9.8%
same,Activity,[20],29%
same,Activity,[21],44.7%
same,Activity,[22],23%
same,Activity,[23],35%
same,Activity,[24],39%
same,Activity,[25],26%
same,TGI,[26],inactive
same,TGI,[27],inactive
same,Activity,[28],Toxic
same,Activity,[29],Toxic
CN(C)CCN1C(=O)c2cccc3cc(N)cc(c23)C1=O [AMONAFIDE],GI50,[7],> 25 µM
same,GI50,[30],> 25 µM
same,GI50,[9],> 25 µM
same,GI50,[31],> 25 µM
same,GI50,[11],> 25 µM
same,GI50,[32],> 25 µM
same,GI50,[13],> 25 µM
same,GI50,[33],> 25 µM
same,GI50,[15],> 25 µM
same,GI50,[34],> 25 µM
same,Activity,[35],63.5%
same,Activity,[36],26%
same,Activity,[37],9.8%
same,Activity,[38],29%
same,Activity,[39],44.7%
same,Activity,[40],23%
same,Activity,[41],35%
same,Activity,[42],39%
same,Activity,[43],26%
same,inhibition,[44],Active
same,inhibition,[45],inactive
same,TGI,[46],inactive
same,TGI,[47],inactive
same,Activity,[48],Toxic
same,Activity,[49],Toxic
